# Test results taken from EP0726263A2, “Herbicidal (1,3,4)oxadiazoles and thiadiazoles” (American Cyanamid Company, priority 1995, dated 1996).
# Experiments:
# Type in all cases: in vivo
# Glycine max [1] = assay: Herbicidal activity, preemergence test; details: pre; sprayed onto soil, 800 g of active material per hectare; evaluated 3 weeks after treatment
# In short: (§1)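 Acetone/TRITON X-155 formulation diluted in water, sprayed onto horticultural loam soon after sowing at 800 g active material per hectare in 900 litres per hectare. Visual 0-9 rating of stand, vigor, malformation, size and chlorosis versus untreated sown soil, scored 3 weeks after treatment.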
# Alopecurus myosuroides [2] = assay: Herbicidal activity, preemergence test; details: pre; sprayed onto soil, 800 g of active material per hectare; evaluated 3 weeks after treatment
# In short: as §1
# Hordeum vulgare [3] = assay: Herbicidal activity, preemergence test; details: pre; sprayed onto soil, 800 g of active material per hectare; evaluated 3 weeks after treatment
# In short: as §1
# Gossypium hirsutum [4] = assay: Herbicidal activity, preemergence test; details: pre; sprayed onto soil, 800 g of active material per hectare; evaluated 3 weeks after treatment
# In short: as §1
# Chenopodium album [5] = assay: Herbicidal activity, preemergence test; details: pre; sprayed onto soil, 800 g of active material per hectare; evaluated 3 weeks after treatment
# In short: as §1
# Amaranthus retroflexus [6] = assay: Herbicidal activity, preemergence test; details: pre; sprayed onto soil, 800 g of active material per hectare; evaluated 3 weeks after treatment
# In short: as §1
# Galium aparine [7] = assay: Herbicidal activity, preemergence test; details: pre; sprayed onto soil, 800 g of active material per hectare; evaluated 3 weeks after treatment
# In short: as §1
# Papaver rhoeas [8] = assay: Herbicidal activity, preemergence test; details: pre; sprayed onto soil, 800 g of active material per hectare; evaluated 3 weeks after treatment
# In short: as §1
# Lamium purpureum [9] = assay: Herbicidal activity, preemergence test; details: pre; sprayed onto soil, 800 g of active material per hectare; evaluated 3 weeks after treatment
# In short: as §1
# Stellaria media [10] = assay: Herbicidal activity, preemergence test; details: pre; sprayed onto soil, 800 g of active material per hectare; evaluated 3 weeks after treatment
# In short: as §1
# Abutilon theophrasti [11] = assay: Herbicidal activity, preemergence test; details: pre; sprayed onto soil, 800 g of active material per hectare; evaluated 3 weeks after treatment
# In short: as §1
# Ambrosia artemisifolia [12] = assay: Herbicidal activity, preemergence test; details: pre; sprayed onto soil, 800 g of active material per hectare; evaluated 3 weeks after treatment
# In short: as §1
# Ipomoea hederacea [13] = assay: Herbicidal activity, preemergence test; details: pre; sprayed onto soil, 800 g of active material per hectare; evaluated 3 weeks after treatment
# In short: as §1
# Zea mays [14] = assay: Herbicidal activity, preemergence test; details: pre; sprayed onto soil, 800 g of active material per hectare; evaluated 3 weeks after treatment
# In short: as §1
# Setaria viridis [15] = assay: Herbicidal activity, preemergence test; details: pre; sprayed onto soil, 800 g of active material per hectare; evaluated 3 weeks after treatment
# In short: as §1
# Triticum aestivum [16] = assay: Herbicidal activity, preemergence test; details: pre; sprayed onto soil, 800 g of active material per hectare; evaluated 3 weeks after treatment
# In short: as §1
# Veronica persica [17] = assay: Herbicidal activity, preemergence test; details: pre; sprayed onto soil, 800 g of active material per hectare; evaluated 3 weeks after treatment
# In short: as §1
# Matricaria inodora [18] = assay: Herbicidal activity, preemergence test; details: pre; sprayed onto soil, 800 g of active material per hectare; evaluated 3 weeks after treatment
# In short: as §1
# Glycine max [19] = assay: Herbicidal activity, postemergence test; details: post; sprayed onto seedling plants, 800 g of active material per hectare; evaluated 2 weeks after treatment
# In short: (§2)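 Spray dose 800 g a.i./ha in 900 L/ha; acetone stock with 0.4% Triton X-155, water-diluted. Pre: sown loam soil, read at 3 wk. Post: seedling plants, read at 2 wk. Visual 0-9 rating vs untreated.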
# Alopecurus myosuroides [20] = assay: Herbicidal activity, postemergence test; details: post; sprayed onto seedling plants, 800 g of active material per hectare; evaluated 2 weeks after treatment
# In short: as §2
# Hordeum vulgare [21] = assay: Herbicidal activity, postemergence test; details: post; sprayed onto seedling plants, 800 g of active material per hectare; evaluated 2 weeks after treatment
# In short: as §2
# Gossypium hirsutum [22] = assay: Herbicidal activity, postemergence test; details: post; sprayed onto seedling plants, 800 g of active material per hectare; evaluated 2 weeks after treatment
# In short: as §2
# Chenopodium album [23] = assay: Herbicidal activity, postemergence test; details: post; sprayed onto seedling plants, 800 g of active material per hectare; evaluated 2 weeks after treatment
# In short: as §2
# Amaranthus retroflexus [24] = assay: Herbicidal activity, postemergence test; details: post; sprayed onto seedling plants, 800 g of active material per hectare; evaluated 2 weeks after treatment
# In short: as §2
# Galium aparine [25] = assay: Herbicidal activity, postemergence test; details: post; sprayed onto seedling plants, 800 g of active material per hectare; evaluated 2 weeks after treatment
# In short: as §2
# Papaver rhoeas [26] = assay: Herbicidal activity, postemergence test; details: post; sprayed onto seedling plants, 800 g of active material per hectare; evaluated 2 weeks after treatment
# In short: as §2
# Lamium purpureum [27] = assay: Herbicidal activity, postemergence test; details: post; sprayed onto seedling plants, 800 g of active material per hectare; evaluated 2 weeks after treatment
# In short: as §2
# Stellaria media [28] = assay: Herbicidal activity, postemergence test; details: post; sprayed onto seedling plants, 800 g of active material per hectare; evaluated 2 weeks after treatment
# In short: as §2
# Abutilon theophrasti [29] = assay: Herbicidal activity, postemergence test; details: post; sprayed onto seedling plants, 800 g of active material per hectare; evaluated 2 weeks after treatment
# In short: as §2
# Ambrosia artemisifolia [30] = assay: Herbicidal activity, postemergence test; details: post; sprayed onto seedling plants, 800 g of active material per hectare; evaluated 2 weeks after treatment
# In short: as §2
# Ipomoea hederacea [31] = assay: Herbicidal activity, postemergence test; details: post; sprayed onto seedling plants, 800 g of active material per hectare; evaluated 2 weeks after treatment
# In short: as §2
# Zea mays [32] = assay: Herbicidal activity, postemergence test; details: post; sprayed onto seedling plants, 800 g of active material per hectare; evaluated 2 weeks after treatment
# In short: as §2
# Setaria viridis [33] = assay: Herbicidal activity, postemergence test; details: post; sprayed onto seedling plants, 800 g of active material per hectare; evaluated 2 weeks after treatment
# In short: as §2
# Triticum aestivum [34] = assay: Herbicidal activity, postemergence test; details: post; sprayed onto seedling plants, 800 g of active material per hectare; evaluated 2 weeks after treatment
# In short: as §2
# Veronica persica [35] = assay: Herbicidal activity, postemergence test; details: post; sprayed onto seedling plants, 800 g of active material per hectare; evaluated 2 weeks after treatment
# In short: as §2
# Matricaria inodora [36] = assay: Herbicidal activity, postemergence test; details: post; sprayed onto seedling plants, 800 g of active material per hectare; evaluated 2 weeks after treatment
# In short: as §2
Compound,GLXMA control rating (0-9) (Glycine max [1]),ALOMY control rating (0-9) (Alopecurus myosuroides [2]),HORVW control rating (0-9) (Hordeum vulgare [3]),GOSHI control rating (0-9) (Gossypium hirsutum [4]),CHEAL control rating (0-9) (Chenopodium album [5]),AMARE control rating (0-9) (Amaranthus retroflexus [6]),GALAP control rating (0-9) (Galium aparine [7]),PAPRH control rating (0-9) (Papaver rhoeas [8]),LAMPU control rating (0-9) (Lamium purpureum [9]),STEME control rating (0-9) (Stellaria media [10]),ABUTH control rating (0-9) (Abutilon theophrasti [11]),AMBEL control rating (0-9) (Ambrosia artemisifolia [12]),IPOHE control rating (0-9) (Ipomoea hederacea [13]),ZEAMX control rating (0-9) (Zea mays [14]),SETVI control rating (0-9) (Setaria viridis [15]),TRZAW control rating (0-9) (Triticum aestivum [16]),VERPE control rating (0-9) (Veronica persica [17]),MATIN control rating (0-9) (Matricaria inodora [18]),GLXMA control rating (0-9) (Glycine max [19]),ALOMY control rating (0-9) (Alopecurus myosuroides [20]),other results
C[C@H](NC(=O)c1nnc(-c2ccc(Cl)cc2Cl)o1)c1ccccc1 [Example 26],0 (no effect),0 (no effect),0 (no effect),0 (no effect),0 (no effect),3 (moderate effect),0 (no effect),9 (complete kill),0 (no effect),0 (no effect),0 (no effect),0 (no effect),0 (no effect),0 (no effect),0 (no effect),0 (no effect),7 (good herbicidal effect),0 (no effect),2 (slight effect),0 (no effect),HORVW control rating (0-9) (Hordeum vulgare [21]): 0 (no effect); GOSHI control rating (0-9) (Gossypium hirsutum [22]): 3 (moderate effect); CHEAL control rating (0-9) (Chenopodium album [23]): 5 (definite injury); AMARE control rating (0-9) (Amaranthus retroflexus [24]): 8 (approaching complete kill); GALAP control rating (0-9) (Galium aparine [25]): 0 (no effect); PAPRH control rating (0-9) (Papaver rhoeas [26]): 3 (moderate effect); LAMPU control rating (0-9) (Lamium purpureum [27]): 7 (good herbicidal effect); STEME control rating (0-9) (Stellaria media [28]): 6 (herbicidal effect); ABUTH control rating (0-9) (Abutilon theophrasti [29]): 1 (trace effect); AMBEL control rating (0-9) (Ambrosia artemisifolia [30]): 0 (no effect); IPOHE control rating (0-9) (Ipomoea hederacea [31]): 0 (no effect); ZEAMX control rating (0-9) (Zea mays [32]): 0 (no effect); SETVI control rating (0-9) (Setaria viridis [33]): 4 (injury); TRZAW control rating (0-9) (Triticum aestivum [34]): 0 (no effect); VERPE control rating (0-9) (Veronica persica [35]): 3 (moderate effect); MATIN control rating (0-9) (Matricaria inodora [36]): 2 (slight effect)
C[C@H](NC(=O)c1nnc(-c2ccc(Cl)c(Cl)c2)o1)c1ccccc1 [Example 27],0 (no effect),0 (no effect),0 (no effect),0 (no effect),0 (no effect),0 (no effect),0 (no effect),3 (moderate effect),0 (no effect),0 (no effect),0 (no effect),0 (no effect),0 (no effect),0 (no effect),0 (no effect),0 (no effect),3 (moderate effect),0 (no effect),2 (slight effect),0 (no effect),HORVW control rating (0-9) (Hordeum vulgare [21]): 0 (no effect); GOSHI control rating (0-9) (Gossypium hirsutum [22]): 2 (slight effect); CHEAL control rating (0-9) (Chenopodium album [23]): 6 (herbicidal effect); AMARE control rating (0-9) (Amaranthus retroflexus [24]): 5 (definite injury); GALAP control rating (0-9) (Galium aparine [25]): 0 (no effect); PAPRH control rating (0-9) (Papaver rhoeas [26]): 2 (slight effect); LAMPU control rating (0-9) (Lamium purpureum [27]): 4 (injury); STEME control rating (0-9) (Stellaria media [28]): 0 (no effect); ABUTH control rating (0-9) (Abutilon theophrasti [29]): 0 (no effect); AMBEL control rating (0-9) (Ambrosia artemisifolia [30]): 0 (no effect); IPOHE control rating (0-9) (Ipomoea hederacea [31]): 0 (no effect); ZEAMX control rating (0-9) (Zea mays [32]): 0 (no effect); SETVI control rating (0-9) (Setaria viridis [33]): 0 (no effect); TRZAW control rating (0-9) (Triticum aestivum [34]): 0 (no effect); VERPE control rating (0-9) (Veronica persica [35]): 0 (no effect); MATIN control rating (0-9) (Matricaria inodora [36]): 0 (no effect)
